Results from patent US20040219102A1, “Compositions for drug delivery” (priority 2003, published 2004).
Read-outs that look alike come from different tables or passages of the source.

Tests used:
JJ5 Breast Cancer cells [1] = conditions: cultured 4 days
Description: The number of cells seeded was varied from 3×10^4 to 3×10^6 cells to obtain approximately 350 viable colonies/dish taking into account the plating efficiency and the expected level of cytotoxicity. Control dishes contained JJ5 breast cancer cells which were incubated with normal saline. Growth medium was added and the cells were cultured at 37° C./5% CO2 for 4 days. The growth medium was removed and the colonies were stained with methylene blue (1% in a 1:1 mixture of ethanol and water) then washed twice. The number of colonies per dish was counted using a manual colony counter (Manostat Corp). The plating efficiency was calculated by dividing the number of colonies observed by the number of cells seeded in each dish.

JJ5 Breast Cancer cells [2] = test: Growth inhibition assay of EGF-111In-labeled transferrin composition against JJ5 breast cancer cells; assay type: cell-based, human; conditions: cultured 4 days
Description: JJ5 breast cancer cells (prepared from BCBM JJ5) expressing approximately 10^6 epidermal growth factor receptors/cell were incubated with EGF-^111In-labeled transferrin composition, unlabeled hEGF or ^111In-oxine, centrifuged to remove free ligand, then assayed and seeded (10^6 cells/dish) into 35 mm culture dishes.

JJ5 Breast Cancer cells [3] = test: Cytotoxicity (colony-forming) assay of EGF-111In-labeled transferrin composition against JJ5 breast cancer cells; assay type: cell-based, human; conditions: 14 days
Description: JJ5 breast cancer cells were incubated with increasing amounts EGF-^111In-labeled transferrin composition or ^111In-oxine, centrifuged to remove free ligand, assayed and then seeded into 50 mm culture dishes. […] The growth medium was removed and the colonies were stained with methylene blue (1% in a 1:1 mixture of ethanol and water) then washed twice.
Using a colony-forming assay, the radiotoxicity of internalization for JJ5 breast cancer cells was evaluated.

JJ5 Breast Cancer cells [4] = test: Binding of EGF-111In-labeled transferrin composition to breast cancer cells; set-up: species or system human
Excerpt: For the normal breast cell line HBL-100, 8000 EGFR/cell has been reported. The expression of EGFR in breast cancer cell lines has a reported range of 800 EGFR/cell for MCF-7 cells to 10^6 EGFR/cell for MDA-MB-468 cells. […] Utilizing the Auger electron emitter ^111In was used in the initial experiments to illustrate the utility of the invention using EGF-^111In-labeled transferrin compositions. […] The cells were transferred to a centrifuge tube and centrifuged. The cell pellet was separated from the supernatant and counted in a g-scintillation counter to determine bound (B) and free (F) radioactivity. Non-specific binding was determined by conducting the assay in 100 nM hEGF. […] Internalized fraction was measured by determining the proportion of radioactivity which could not be displaced from the cell surface by 100 nM hEGF. Cell-associated binding (surface-binding and intracellular accumulation) was expressed as a percentage of medium radioactivity bound per mg of cell study protein. […] EGF-^111In-labeled transferrin composition was rapidly bound by the breast cancer cells and retained for at least 24 hours. Over a 24 hour period at 37° C., <8% was lost from the cells in vitro.

COc1cccc2c1C(=O)c1c(O)c3c(c(O)c1C2=O)C[C@@](O)(C(=O)CO)C[C@@H]3O[C@H]1C[C@H](N)[C@H](O)[C@H](C)O1 [Doxorubicin]
growth inhibition of the JJ5 cells compared to the medium control (JJ5 Breast Cancer cells [1]): 95%

[In+3].[O-]c1cccc2cccnc12.[O-]c1cccc2cccnc12.[O-]c1cccc2cccnc12 [^111In-oxine, reference compound]
growth inhibition of the JJ5 cells compared to the medium control (JJ5 Breast Cancer cells [2]; 3.5 pCi/cell): 91% | cell killing (JJ5 Breast Cancer cells [3]; at <6 pCi/cell): greater than 99%

EGF-^111In-labeled transferrin composition
time retained by the breast cancer cells (JJ5 Breast Cancer cells [4]; 37° C.): at least 24 hours | affinity constant for binding to JJ5 cells (JJ5 Breast Cancer cells [4]; 37° C., 30 minutes, non-specific binding in 100 nM hEGF): 8e+08 L/mol | number of binding sites (JJ5 Breast Cancer cells [4]; JJ5 cells): 2.7×10^6 | 111In radioactivity lost from the cells in vitro (JJ5 Breast Cancer cells [4]; over a 24 hour period at 37° C.): < 8% | growth inhibition of the JJ5 cells compared to the medium control (JJ5 Breast Cancer cells [2]; 3.4 pCi/cell): 83% | reduction in cell survival (JJ5 Breast Cancer cells [3]; 8 pCi/cell): 99%
